Measured values taken from US12297293B2, “Peptide compounds targeting PD-1 receptor as well as preparation and applications thereof” (NANTONG UNIVERSITY, priority 2021, dated 2025).
Ends that are not written are not given here.

Columns and labels:
DRG neurons = experiment: DRG neuronal calcium imaging experiment; type: cell-based, ICR mice; conditions: DRG neurons pretreated with 1 nM; high K+ solution; Fluo-4/AM, laser confocal
Text: The inhibitory effect of compounds 1-5 on pain signaling was characterized by DRG neuronal calcium imaging, comprising the following steps:
performing acute isolation on 3-week-old female ICR mice, and extracting DRG in a sterile bench; lysing sequentially by collagenase A and trypsin; terminating trypsin lysis with a complete medium containing serum; centrifuging at 800r, discarding supernatant, and adding Neurobasal medium (containing 2% B27, Clutanine 1%, and 1% penicillin-streptomycin double antibody solution) and thoroughly mixing; then culturing in pre-prepared Petri dishes lined with PDL for 48 h; labeling DRG neurons with Flou-4/AM prior to the experiment, and pre-treating with different doses of the compounds 1-5/equivalent volume of HBSS before stimulating the DRG neurons with high K+ solution; and then detecting changes of intracellular free calcium ion concentration of DRG neurons under laser confocal.

[1] = test system: acetic acid-induced visceral pain; experiment: Acetic acid-induced visceral pain (writhing) test; type: in vivo, ICR male mice
Experimental: According to the present invention, placing ICR male mice in a weight range of 25-30 g in an observation room for 15 min, and injecting intrathecally with different doses of the compound 4 (5 nmol, 10 nmol, 30 nmol) or saline; after 5 min, injecting intraperitoneally with 0.6% glacial acetic acid solution (10 mL/kg), and then sending to the observation room; counting the number of body writhing within 20 min.
The experimental results are shown in FIG. 4, the number of writhing in mice decreased with the increase of the administered dose. […] Intrathecally injected at a dose of 30 nmol, the compound 4 inhibited the writhing behavior of mice by 63%.

[2] = test system: formalin-induced inflammatory pain; experiment: Formalin-induced inflammatory pain test; type: in vivo, ICR male mice
Experimental: According to the present invention, placing ICR male mice in a weight range of 25-30 g in an observation room for 15 min, and injecting intrathecally with different doses of the compound 4 (5 nmol, 10 nmol, 30 nmol) or saline; after 5 min, injecting subcutaneously with 5% formalin (20 μl) through the plantar surface of the foot, and then immediately sending to the observation room; counting an accumulated time of pain behaviors (licking, biting, and flinging the injected foot) during the time period of 0-10 min and 10-45 min, respectively.
0-10 min after formalin injection is a phase I, which is mainly triggered by direct activation of injurious neurons; and 10-35 min is phase II, which is mainly triggered by formalin-induced inflammatory response.

For SYGGADYKR [compound 4], the “inhibitory effect on the increase of intracellular Ca2+ concentration induced by high K+” value (DRG neurons) was “significant inhibitory effect”, the “number of abdominal writhing” value ([1]; intrathecal 5, 10, 30 nmol, 0.6% acetic acid i.p. 10 mL/kg, writhing within 20 min) was “significantly reduce the number of abdominal writhing in mice in a dose-dependent manner” and the “inhibition of writhing behavior” value ([1]; intrathecal dose of 30 nmol) was 63%. The ED50 ([1]; intrathecal injection, acetic acid writhing) was 13.5 (11.88-15.34) nmol, the “pain behavior (licking, biting and flinging the injected foot) in both phases” value ([2]; intrathecal 5, 10, 30 nmol, 5% formalin 20 μl plantar, phase I and phase II, vs control group) was “significantly shortened” and the “ED50 (median effective dose) for pain in phase II” value ([2]; intrathecal injection, formalin phase II) was 6.28 (5.34-7.39) nmol.
